Test results taken from publication PMC5007486, “Thermodynamic instability of viral proteins is a pathogen-associated molecular pattern targeted by human defensins” (Scientific Reports, 2016).
Where no end group is shown, it is not given here.

How the values were obtained:
[1] = test system: HIV-1 Gag-Δp6; settings: DSF, 5-fold molar excess of cyclotide
Experimental: (§3) Viral protein samples (5–20 μM) in a 20 mM 4-(2-hydroxyethyl)-1-piperazineethanesulfonic acid (HEPES) buffer (pH 7.5) supplemented with 150 mM NaCl and 1x SYPRO Orange dye (Invitrogen) were subjected to temperature denaturation in the absence or presence of defensins. […] Temperature melting profiles were acquired with a CFX96 Touch Real-Time PCR Detection System (Bio-Rad). Melting temperatures for proteins alone and in the presence of different defensins were calculated as described previously[76].

[2] = test system: HIV-1 IN; settings: DSF, 5-fold molar excess of cyclotide
Experimental: as §3

[3] = test system: Actin Crosslinking Domain (ACD); type: binding, Vibrio cholerae; settings: 5-molar excess of peptide to the toxin
[4] = test system: HIV-1 CA; settings: DSF, 5-fold molar excess of cyclotide
Experimental: as §3

[5] = test system: PFV IN; type: binding, prototype foamy virus (PFV); settings: DSF, 5-fold molar excess of cyclotide
Excerpt: (§1) Differential scanning fluorimetry (DSF)

[6] = test system: TEV Protease; type: binding, tobacco etch virus (TEV); settings: DSF
Excerpt: as §1

[7] = cited from earlier work
Excerpt: (§2) Three characteristic disulfide bonds stabilize the defensins’ structure and are essential for some, but not all functions of the peptides. […] This is likely because the preserved defensin structure is required in the later case, when the cell wall synthesis machinery is targeted, but not in the former case, when defensins directly affect membranes of Gram-negative bacteria. In contrast, reduction of disulfi ...

[8] = test system: chemokine receptor CCR6; parameters: method as in PMID 12840147; settings: binding and activation of CCR6; cited from earlier work
[9] = test system: Gram-negative and Gram-positive bacteria; settings: reduction of disulfide bonds; cited from earlier work
Excerpt: as §2

[10] = test system: gp41-derived peptide mixture of N36/C34; parameters: method as in PMID 16648135; settings: cited from earlier work
[11] = test system: gp41; settings: cited from earlier work
[12] = test system: serine protease; parameters: method as in PMID 23171075; settings: greatly increased with elevated temperature; cited from earlier work
[13] = test system: dengue virus DENV-2; parameters: method as in PMID 23171075; settings: activity greatly increased with elevated temperature; cited from earlier work
[14] = test system: HIV-1 MA; settings: 10 μM MA, 3-fold molar excess HNP-1, chymotrypsin (1:100 w/w) or thermolysin (1:200 w/w), 37 °C, 20 mM HEPES pH 7.5, 100 mM NaCl, 5 mM CaCl2, SDS-PAGE
Experimental: (§4) Briefly, viral proteins (5–10 μM) were mixed with 3-fold molar excess of HNP-1 (i.e. 15–30 μM) in a 20 mM HEPES buffer (pH 7.5) supplemented with 100 mM NaCl and 5 mM CaCl2. […] The reactions were stopped by adding reducing sample buffer (50 mM Tris, pH 6.8, 10% glycerol, 2% sodium dodecyl sulfate (SDS), 100 mM β-mercaptoethanol, 0.1% bromophenol blue) supplemented with 2 mM phenylmethylsulfonyl fluoride (PMSF) and 10 mM ethylenediaminetetraacetic acid (EDTA) and boiling for 5 min. The protein samples were resolved on SDS-PAGE.

[15] = test system: PFV IN; parameters: species or system prototype foamy virus (PFV); settings: 5 μM PFV IN, 3-fold molar excess HNP-1, chymotrypsin (1:100 w/w) or thermolysin (1:200 w/w), 37 °C, 20 mM HEPES pH 7.5, 100 mM NaCl, 5 mM CaCl2, SDS-PAGE
Experimental: Limited proteolysis was conducted as described previously. […] The protein samples were resolved on SDS-PAGE.

[16] = test system: HIV-1 CA; settings: 10 μM CA, 3-fold molar excess HNP-1, chymotrypsin (1:100 w/w) or thermolysin (1:200 w/w), 37 °C, 20 mM HEPES pH 7.5, 100 mM NaCl, 5 mM CaCl2, SDS-PAGE
Experimental: as §4

[17] = test system: HIV-1; settings: cited from earlier work
[18] = test system: HIV-1 IN; settings: HTRF; IN 400 nM; defensin 1–10 μM, 30 min room temperature; strand transfer three hours 37 °C, pH 7.5
Experimental: Homogenous time-resolved fluorescence (HTRF)-based integration activity assay
To test the HIV-1 integrase (IN) activity in the presence and absence of defensins, previously developed HTRF technique[41][42] was used with some modifications. […] Following the incubation with the defensins, a 5′-Cy5-labelled 21-mer viral donor DNA (200 nM) and 3′-biotinylated target DNA (20 nM) were added to the reaction. […] 0.5 M NaCl (final concentration in the development solution) allows dissociating of all DNA from IN to prevent FRET signal from non-covalently associated donor and target DNA. Following an overnight incubation at 4 °C, the HTRF signal was recorded with an EnSpire multimode plate reader (PerkinElmer).

[19] = test system: TEV Protease; type: biochemical, tobacco etch virus (TEV); settings: disulfide bonds reduced with 10 mM TCEP, one hour pre-incubation at room temperature
Experimental: TEV protease activity assay
The reactions were stopped by boiling in reducing sample buffer; proteolytic products were resolved on SDS-PAGE. For reducing condition experiments, the reaction buffer was supplemented with 10 mM tris(2-carboxyethyl)phosphine (TCEP) and the defensins were pre-incubated with 10 mM TCEP for one hour at room temperature before co-incubation with the TEV protease. Note, the ammonium salt of TCEP (Sigma #646547) used in this study has neutral pH (7.0). Care was taken to verify that the final pH of the working solutions was not changed after the addition of TCEP.

[20] = test system: TEV Protease; parameters: species or system tobacco etch virus (TEV); settings: 10 μM protein; HNP-1 20 and 50 μM or RC-101 30 and 60 μM; 30 min, […] °C, pH 7.5, 100 mM NaCl; 280,000 g, SDS-PAGE
Experimental: Precipitation of HIV-1 MA, HIV-1 CA, and TEV protease was assessed by differential ultracentrifugation. […] All samples were centrifuged using TLA-100 rotor in Optima TL-100 ultracentrifuge (Beckman Coulter) at 280,000 g for 30 min at 4 °C. The supernatant (soluble) and pellet (precipitated) fractions were collected, supplemented with 1/3rd of the volume of 4x reducing sample buffer (200 mM Tris, pH 6.8, 40% glycerol, 8% SDS, 400 mM β-mercaptoethanol, 0.4% bromophenol blue), pellets resuspended, and samples resolved on SDS-PAGE.

[21] = test system: HSV; parameters: method as in PMID 17142766; settings: cited from earlier work
[22] = test system: gp41; settings: cited from earlier work; remark: listed apart in the source
[23] = test system: Ad5.F35 capsid; settings: CryoEM; with signs of local disorganization of hexon, penton base, fiber; cited from earlier work
Excerpt: It is likely that the potent destabilizing effects imposed by defensins are pertinent at numerous physiological occasions and particularly upon dynamic structural transitions in the course of capsid assembly, uncoating, and membrane fusion. Yet, we are far from proposing that the destabilization of purified viral proteins by defensins observed in vitro accurately represents the complexity of physiological conditions including, but not limited to, interactions of viral proteins with each other, viral nucleic acids, and host proteins. Thus, in apparent contradiction with our resu ...

kalata B1 [kB1]
Ability to potentiate unfolding of HIV-1 Gag-Δp6 [1]: none of the four cyclotides used in this study (cyO2, cyO19, kB1, and kB7) demonstrated an ability to potentiate unfolding
Ability to potentiate unfolding of HIV-1 IN [2]: none of the four cyclotides used in this study (cyO2, cyO19, kB1, and kB7) demonstrated an ability to potentiate unfolding
Unfolding / DSF thermal denaturation profile of ACD toxin [3]: none of the four cyclotides used in this study (cyO2, cyO19, kB1, and kB7) demonstrated an ability to potentiate unfolding
Ability to potentiate unfolding of HIV-1 CA [4]: none of the four cyclotides used in this study (cyO2, cyO19, kB1, and kB7) demonstrated an ability to potentiate unfolding
Ability to potentiate unfolding of PFV IN [5]: none of the four cyclotides used in this study (cyO2, cyO19, kB1, and kB7) demonstrated an ability to potentiate unfolding
Ability to potentiate unfolding of TEV protease ([6]; 5-fold molar excess of cyclotide): none of the four cyclotides used in this study (cyO2, cyO19, kB1, and kB7) demonstrated an ability to potentiate unfolding

hBD-3: human beta-defensin 3 (GIINTLQKYYCRVRGGRCAVLSCLPKEEQIGKCSTRGRKCCRRKK; ends and bridges not checked; cysteine pairing not given here; UniProt P81534 23-67, looked up)
Need of disulfide bonds for antimicrobial activity [7]: dispensable for its antimicrobial activity
Need of disulfide bonds for chemotactic activity [8]: required for its chemotactic activity

hBD-1: human β-defensin hBD-1, prepared by solid-phase peptide synthesis (DHYNCVSSGGQCLYSACPIFTKIQGTCYRGKAKCCK; ends and bridges not checked; cysteine pairing not given here; UniProt P60022 33-68, looked up)
Effect of disulfide reduction on antimicrobial activity [9]: activates hBD-1 antimicrobial activity against both Gram-negative and Gram-positive bacteria
Effect on thermal melting of TEV protease, reducing conditions ([6]; reduced β-defensin, 10 mM TCEP): had no effect on thermal melting

retrocyclin-1 [RC-1]
Circular dichroism spectrum of N36/C34 [10]: transformed into a random coil-like spectrum
Refolding of gp41 into 6-helix bundle [11]: impaired refolding of gp41 into the 6-helix bundle structure triggering their aggregation
DENV-2 serine protease activity [12]: interfering with the activity of its serine protease
Dengue virus DENV-2 replication [13]: inhibits dengue virus DENV-2 replication

HNP-1: human neutrophil α-defensin peptide HNP-1, prepared by solid-phase peptide synthesis
Detectable amounts of cleaved products of HIV-1 MA [14]: drastic reduction in the detectable amounts of cleaved products
Detectable amounts of cleaved products of PFV IN [15]: drastic reduction in the detectable amounts of cleaved products
Detectable amounts of cleaved products of HIV-1 CA [16]: drastic reduction in the detectable amounts of cleaved products
HIV-1 infection [17]: inhibit HIV-1 and HSV infections at multiple steps
Refolding of gp41 into 6-helix bundle [11]: impaired refolding of gp41 into the 6-helix bundle structure triggering their aggregation
Strand transfer activity of HIV-1 IN [18]: inhibited the strand transfer activity of IN
Ability to inhibit proteolytic activity of TEV protease, reducing conditions [19]: complete loss
Precipitation of TEV protease [20]: dose-dependent precipitation
HSV infection [21]: inhibit HIV-1 and HSV infections at multiple steps
Ability to promote unfolding of TEV protease, reducing conditions ([6]; disulfide bonds reduced with 10 mM TCEP): complete loss
Refolding lifetime of gp41 intermediates in pre-hairpin conformation [22]: prolong refolding lifetime of gp41 intermediates in pre-hairpin conformation

B1: HD-5: human enteric α-defensin HD-5, prepared by solid-phase peptide synthesis (peptide, UniProt Q01523 20-94, looked up)
Defensin alpha 5: ESLQERADEATTQKQSGEDNQDLAISFAGNGLSALRTSGSQARATCYCRTGRCATRESLSGVCEISGRLYRLCCR
modifications: Defensin-5
notes: human enteric α-defensin HD-5, prepared by solid-phase peptide synthesis
Stability of Ad5.F35 capsid [23]: overall stabilization of Ad5.F35 capsid
